A short description of this assay: Cell-based activity under Prompt Conditions: Cell-based activity under Prompt Conditions. Rat or human NHE3-mediated Na+-dependent H+ antiport was measured using a modification of the pH sensitive dye method originally reported by Paradiso (PNAS USA. 81:7436-7440, 1984). Opossum kidney (OK) cells were obtained from the ATCC and propagated per their instructions. The rat NHE3 gene (GenBank M85300) or the human NHE3 gene (GenBank NM_004174.1) was introduced into OK cells via electroporation, and cells were seeded into 96 well plates and grown overnight. Medium was aspirated from the wells, cells were washed twice with NaCl-HEPES buffer (100 mM NaCl, 50 mM HEPES, 10 mM glucose, 5 mM KCl, 2 mM CaCl2, 1 mM MgCl2, pH 7.4), then incubated for 30 min at room temperature with NH4Cl-HEPES buffer (20 mM NH4Cl, 80 mM NaCl, 50 mM HEPES, 5 mM KCl, 2 mM CaCl2, 1 mM MgCl2, pH 7.4) containing 5 μM bis(acetoxymethyl) 3,3′-(3′,6′-bis(acetoxymethoxy)-5-((acetoxymethoxy)carbonyl)-3-oxo-3H-spiro[isobenzofuran-1,9′-xanthene]-2′,7′-diyl)dipropanoate (BCECF-AM).Cells were washed twice with Ammonium free, Na+-free HEPES (100 mM choline, 50 mM HEPES, 10 mM glucose, 5 mM KCl, 2 mM CaCl2, 1 mM MgCl2, pH 7.4) and incubated in the same buffer for 10 minutes at room temperature to lower intracellular pH. […] Initial rates were plotted as the average 2 or more replicates, and pIC50 values were estimated using GraphPad Prism.
In the case of `CCC(=O)NC(CCC(=O)NCCOCCOCCOCCNS(=O)(=O)c1cccc([C@@H]2CN(C)Cc3c(Cl)cc(Cl)cc32)c1)(CCC(=O)NCCOCCOCCOCCNS(=O)(=O)c1cccc([C@@H]2CN(C)Cc3c(Cl)cc(Cl)cc32)c1)CCC(=O)NCCOCCOCCOCCNS(=O)(=O)c1cccc([C@@H]2CN(C)Cc3c(Cl)cc(Cl)cc32)c1`, the IC50 (commonly the concentration at which inhibition is half-maximal) was 0.0794 µM.

Turning to `CCCCCCCCCCC(=O)NC(CCC(=O)NCCOCCOCCNS(=O)(=O)c1cccc([C@@H]2CN(C)Cc3c(Cl)cc(Cl)cc32)c1)(CCC(=O)NCCOCCOCCNS(=O)(=O)c1cccc([C@@H]2CN(C)Cc3c(Cl)cc(Cl)cc32)c1)CCC(=O)NCCOCCOCCNS(=O)(=O)c1cccc([C@@H]2CN(C)Cc3c(Cl)cc(Cl)cc32)c1`, the IC50 is < 10 µM. Regarding `CN1Cc2c(Cl)cc(Cl)cc2[C@H](c2cccc(S(=O)(=O)NCCOCCOCCNC(=O)N(C)CCCN(CCCN(C)C(=O)NCCOCCOCCNS(=O)(=O)c3cccc([C@@H]4CN(C)Cc5c(Cl)cc(Cl)cc54)c3)CCCN(C)C(=O)NCCOCCOCCNS(=O)(=O)c3cccc([C@@H]4CN(C)Cc5c(Cl)cc(Cl)cc54)c3)c2)C1`, the IC50 is 0.126 µM. For the compound `CN1Cc2c(Cl)cc(Cl)cc2[C@H](c2cccc(S(=O)(=O)NCCOCCOCCNC(=O)CCC(CCC(=O)NCCOCCOCCNS(=O)(=O)c3cccc([C@@H]4CN(C)Cc5c(Cl)cc(Cl)cc54)c3)(CCC(=O)NCCOCCOCCNS(=O)(=O)c3cccc([C@@H]4CN(C)Cc5c(Cl)cc(Cl)cc54)c3)NS(C)(=O)=O)c2)C1`, the IC50 is 0.631 µM. With `CN1Cc2c(Cl)cc(Cl)cc2[C@H](c2cccc(S(=O)(=O)NCCOCCOCCNC(=O)CCC(=O)NCCOCCOCCNS(=O)(=O)c3ccc(O[C@H]4c5ccccc5C[C@@H]4N4CCCCC4)cc3)c2)C1`, the IC50 is 0.0316 µM.

Regarding `CN1Cc2c(Cl)cc(Cl)cc2[C@H](c2cccc(S(=O)(=O)NCCOCCOCCNC(=O)CCC(CCC(=O)NCCOCCOCCNS(=O)(=O)c3cccc([C@@H]4CN(C)Cc5c(Cl)cc(Cl)cc54)c3)(CCC(=O)NCCOCCOCCNS(=O)(=O)c3cccc([C@@H]4CN(C)Cc5c(Cl)cc(Cl)cc54)c3)NC(=O)CCC(=O)O)c2)C1`, the IC50 was 0.0316 µM. Consider `O=C(NCCOCCOCCOCCNS(=O)(=O)c1ccc(O[C@H]2c3ccccc3C[C@@H]2N2CCCCC2)cc1)c1ccc(C(=O)NCCOCCOCCOCCNS(=O)(=O)c2ccc(O[C@H]3c4ccccc4C[C@@H]3N3CCCCC3)cc2)cc1`, for which the IC50 is 0.0316 µM. Take `O=C(NCCOCCOCCNS(=O)(=O)c1ccc(O[C@H]2c3ccccc3C[C@@H]2N2CCCCC2)cc1)c1ccc(C(=O)NCCOCCOCCNS(=O)(=O)c2ccc(O[C@H]3c4ccccc4C[C@@H]3N3CCCCC3)cc2)cc1`: the IC50 was 0.00794 µM. With `CN(C)[C@H]1Cc2ccc(Cl)cc2[C@@H]1Oc1ccc(S(=O)(=O)NCCOCCOCCNC(=O)NCCCCNC(=O)NCCOCCOCCNS(=O)(=O)c2ccc(O[C@H]3c4cc(Cl)ccc4C[C@@H]3N(C)C)cc2)cc1`, the IC50 is < 10 µM. `CN1Cc2c(Cl)cc(Cl)cc2[C@H](c2cccc(S(=O)(=O)NCCOCCOCCOCCNCc3ccc(-c4ccc(Cl)cc4)cc3)c2)C1`: the half-inhibitory concentration (IC50) is < 10 µM. `CN1Cc2c(Cl)cc(Cl)cc2[C@H](c2cccc(S(=O)(=O)NCCOCCOCCNC(=O)NCCN(CCNC(=O)NCCOCCOCCNS(=O)(=O)c3cccc([C@@H]4CN(C)Cc5c(Cl)cc(Cl)cc54)c3)C(=O)NCCOCCOCCNC(=O)c3ccc(-c4ccc(Cl)cc4)cc3)c2)C1`: the IC50 was 1.58 µM. Next, `CCCCCCCCCCC(=O)NCCOCCOCCOCCNS(=O)(=O)c1cccc([C@@H]2CN(C)Cc3c(Cl)cc(Cl)cc32)c1`: < 10 µM; `CCCCCCCCOc1ccc(CNCCOCCOCCOCCNS(=O)(=O)c2cccc([C@@H]3CN(C)Cc4c(Cl)cc(Cl)cc43)c2)cc1`: < 10 µM; `CN1Cc2c(Cl)cc(Cl)cc2[C@H](c2cccc(S(=O)(=O)NCCOCCOCCNC(=O)COCC(=O)NCCOCCOCCNS(=O)(=O)c3ccc(O[C@H]4c5ccccc5C[C@@H]4N4CCCCC4)cc3)c2)C1`: 0.0251 µM. With `CN1Cc2c(Cl)cc(Cl)cc2[C@H](c2cccc(S(=O)(=O)NCCOCCOCCNC(=O)CCC(CCC(=O)NCCOCCOCCNS(=O)(=O)c3cccc([C@@H]4CN(C)Cc5c(Cl)cc(Cl)cc54)c3)(CCC(=O)NCCOCCOCCNS(=O)(=O)c3cccc([C@@H]4CN(C)Cc5c(Cl)cc(Cl)cc54)c3)NCc3ccc(-c4ccc(Cl)cc4)cc3)c2)C1` the figure was < 10 µM. For the compound `CN1Cc2c(Cl)cc(Cl)cc2[C@H](c2cccc(S(=O)(=O)NCCOCCOCCOCCNC(=O)CCC(N)(CCC(=O)NCCOCCOCCOCCNS(=O)(=O)c3cccc([C@@H]4CN(C)Cc5c(Cl)cc(Cl)cc54)c3)CCC(=O)NCCOCCOCCOCCNS(=O)(=O)c3cccc([C@@H]4CN(C)Cc5c(Cl)cc(Cl)cc54)c3)c2)C1`, the IC50 is 0.0631 µM. Regarding `CC(C)CCC[C@@H](C)[C@H]1CC[C@H]2[C@@H]3CC=C4C[C@@H](OC(=O)NCCOCCOCCNC(=O)N(CCNC(=O)NCCOCCOCCNS(=O)(=O)c5cccc([C@@H]6CN(C)Cc7c(Cl)cc(Cl)cc76)c5)CCNC(=O)NCCOCCOCCNS(=O)(=O)c5cccc([C@@H]6CN(C)Cc7c(Cl)cc(Cl)cc76)c5)CC[C@]4(C)[C@H]3CC[C@]12C`, the IC50 is < 10 µM. On to `CN1Cc2c(Cl)cc(Cl)cc2[C@H](c2cccc(S(=O)(=O)NCCOCCOCCNC(=O)NCCN(CCNC(=O)NCCOCCOCCNS(=O)(=O)c3cccc([C@@H]4CN(C)Cc5c(Cl)cc(Cl)cc54)c3)C(=O)NCCOCCOCCN)c2)C1`, for which the IC50 was 0.00398 µM. Consider `CN1Cc2c(Cl)cc(Cl)cc2[C@H](c2cccc(S(=O)(=O)NCCOCCOCCNC(=O)CN(CCOCCOCCOCCN)CC(=O)NCCOCCOCCNS(=O)(=O)c3cccc([C@@H]4CN(C)Cc5c(Cl)cc(Cl)cc54)c3)c2)C1`, for which the IC50 is 0.0158 µM. Next, `CN1Cc2c(Cl)cc(Cl)cc2[C@H](c2cccc(S(=O)(=O)NCCOCCOCCNC(=O)NCCC[N+](C)(CCCNC(=O)NCCOCCOCCNS(=O)(=O)c3cccc([C@@H]4CN(C)Cc5c(Cl)cc(Cl)cc54)c3)CCCNC(=O)NCCOCCOCCNS(=O)(=O)c3cccc([C@@H]4CN(C)Cc5c(Cl)cc(Cl)cc54)c3)c2)C1`: 0.0398 µM. Regarding `CN1Cc2c(Cl)cc(Cl)cc2[C@H](c2cccc(S(=O)(=O)NCCOCCOCCOCCNC(=O)c3ccc(-c4ccc(Cl)cc4)cc3)c2)C1`, the IC50 is < 10 µM. As for `C=CC(=O)NCCOCCOCCOCCNS(=O)(=O)c1cccc([C@@H]2CN(C)Cc3c(Cl)cc(Cl)cc32)c1`, the IC50 was 0.2 µM. With `CN1Cc2c(Cl)cc(Cl)cc2[C@H](c2cccc(S(=O)(=O)NCCOCCOCCNC(=O)CN(CCOCCOCCOCCNC(=O)c3ccc(-c4ccc(Cl)cc4)cc3)CC(=O)NCCOCCOCCNS(=O)(=O)c3cccc([C@@H]4CN(C)Cc5c(Cl)cc(Cl)cc54)c3)c2)C1`, the IC50 is 1.26 µM.

Regarding `CN1Cc2c(Cl)cc(Cl)cc2[C@H](c2cccc(S(=O)(=O)NCCOCCOCCOCCNC(=O)CCC(CCC(=O)NCCOCCOCCOCCNS(=O)(=O)c3cccc([C@@H]4CN(C)Cc5c(Cl)cc(Cl)cc54)c3)(CCC(=O)NCCOCCOCCOCCNS(=O)(=O)c3cccc([C@@H]4CN(C)Cc5c(Cl)cc(Cl)cc54)c3)NC(=O)c3ccc(-c4ccc(Cl)cc4)cc3)c2)C1`, the IC50 was 5.01 µM.

For `O=C(NCCOCCOCCNS(=O)(=O)c1ccc(O[C@H]2c3ccccc3C[C@@H]2N2CCCCC2)cc1)c1cccc(C(=O)NCCOCCOCCNS(=O)(=O)c2ccc(O[C@H]3c4ccccc4C[C@@H]3N3CCCCC3)cc2)c1`, the IC50 was < 10 µM. In the case of `CN(C)[C@H]1Cc2ccccc2[C@@H]1Oc1ccc(S(=O)(=O)NCCOCCOCCNC(=O)NCCCCNC(=O)NCCOCCOCCNS(=O)(=O)c2ccc(O[C@H]3c4ccccc4C[C@@H]3N(C)C)cc2)cc1`, the IC50 was < 10 µM. `CC(C)(C(=O)NCCOCCOCCOCCNS(=O)(=O)c1ccc(O[C@H]2c3ccccc3C[C@@H]2N2CCCCC2)cc1)C(=O)NCCOCCOCCOCCNS(=O)(=O)c1ccc(O[C@H]2c3ccccc3C[C@@H]2N2CCCCC2)cc1`: the concentration for half-maximal inhibition (IC50) is 0.002 µM. With `O=C(NCCCCNC(=O)NCCOCCOCCNS(=O)(=O)c1ccc(O[C@H]2c3ccccc3C[C@@H]2N2CCCC2)cc1)NCCOCCOCCNS(=O)(=O)c1ccc(O[C@H]2c3ccccc3C[C@@H]2N2CCCC2)cc1`, the IC50 is 0.00251 µM. On to `O=C(NCCOCCOCCNS(=O)(=O)c1ccc(O[C@H]2c3ccccc3C[C@@H]2N2CCCCC2)cc1)[C@H](O)[C@@H](O)C(=O)NCCOCCOCCNS(=O)(=O)c1ccc(O[C@H]2c3ccccc3C[C@@H]2N2CCCCC2)cc1`, for which the IC50 was 0.00398 µM. On to `O=C(NCCOCCOCCOCCNS(=O)(=O)c1ccc(O[C@H]2c3ccccc3C[C@@H]2N2CCCCC2)cc1)c1cccc(C(=O)NCCOCCOCCOCCNS(=O)(=O)c2ccc(O[C@H]3c4ccccc4C[C@@H]3N3CCCCC3)cc2)c1`, for which the 50% inhibitory concentration (IC50) was 0.0398 µM.

As for `CCCCCCCCOCCOCCOCCOCCOCCOC(=O)NCCOCCOCCOCCNS(=O)(=O)c1cccc([C@@H]2CN(C)Cc3c(Cl)cc(Cl)cc32)c1`, the IC50 is 0.251 µM.

For the compound `CCC(=O)NCCOCCOCCOCCNS(=O)(=O)c1cccc([C@@H]2CN(C)Cc3c(Cl)cc(Cl)cc32)c1`, the IC50 was 0.2 µM. Take `CN1Cc2c(Cl)cc(Cl)cc2[C@H](c2cccc(S(=O)(=O)NCCOCCOCCOCCNC(=O)CCC(CCC(=O)NCCOCCOCCOCCNS(=O)(=O)c3cccc([C@@H]4CN(C)Cc5c(Cl)cc(Cl)cc54)c3)(CCC(=O)NCCOCCOCCOCCNS(=O)(=O)c3cccc([C@@H]4CN(C)Cc5c(Cl)cc(Cl)cc54)c3)NCc3ccc(-c4ccc(Cl)cc4)cc3)c2)C1`: the IC50 was < 10 µM. In the case of `CN1Cc2c(Cl)cc(Cl)cc2[C@H](c2cccc(S(=O)(=O)N(C)CCOCCOCCNC(=O)NCCCN(CCCNC(=O)NCCOCCOCCN(C)S(=O)(=O)c3cccc([C@@H]4CN(C)Cc5c(Cl)cc(Cl)cc54)c3)CCCNC(=O)NCCOCCOCCN(C)S(=O)(=O)c3cccc([C@@H]4CN(C)Cc5c(Cl)cc(Cl)cc54)c3)c2)C1`, the 50% inhibitory concentration (IC50) is 0.1 µM. Turning to `CCOCCOCCOCCOCCOCCC(=O)N(CCNC(=O)NCCOCCOCCNS(=O)(=O)c1cccc([C@@H]2CN(C)Cc3c(Cl)cc(Cl)cc32)c1)CCNC(=O)NCCOCCOCCNS(=O)(=O)c1cccc([C@@H]2CN(C)Cc3c(Cl)cc(Cl)cc32)c1`, the IC50 was 0.251 µM.
